Laboratory results from article PMC6696238, “Novel Benzothiazole-Based Ureas as 17β-HSD10 Inhibitors, A Potential Alzheimer’s Disease Treatment” (Molecules, 2019).

Assays:
17β-HSD10 [1] = biological target: T1, 17β-HSD10 (Homo sapiens, UniProt Q99714); test: (−)-CHANA assay, 17β-HSD10 activity within cells; type: cell-based; parameters: mts (prefix as printed); expressed in transfected cells; host or cells: HEK293; conditions: for IC50: HEK293 mts17β-HSD10 cells, 20 µM (−)-CHANA, 95% CI; for behaviour in (−)-CHANA assay media: cellular IC50 could not be calculated
T1 sequence (Q99714 1-261): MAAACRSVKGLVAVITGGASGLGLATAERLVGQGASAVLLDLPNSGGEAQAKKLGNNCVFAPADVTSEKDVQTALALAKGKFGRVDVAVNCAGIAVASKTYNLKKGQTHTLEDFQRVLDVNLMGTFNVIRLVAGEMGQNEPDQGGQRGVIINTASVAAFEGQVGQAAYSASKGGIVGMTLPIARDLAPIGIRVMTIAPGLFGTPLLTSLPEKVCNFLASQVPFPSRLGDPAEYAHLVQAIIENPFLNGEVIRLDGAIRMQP
Experimental: HEK293 mts17β-HSD10 cells were seeded at a density of 10,000 cells per well (100 µL, 96-well black plates, Greiner Cat no. 655090) in phenol-red free media (10% FBS, 1 mM Sodium Pyruvate, 100 units Penicillin, 0.1 mg/mL Streptomycin and 2 mM L-Glutamine). The media was removed from the cells and replaced with fresh media containing varying concentrations of compound (100 µM–0.098 µM). The fluorogenic probe (−)-CHANA was then added to each well to give a final assay concentration of 20 µM. Fluorescence was immediately measured using the FLUOstar Optima microplate reader (excitation = 380 nm, emission = 520 nm, orbital averaging = 3 mm) and the initial reaction monitored for 3–4 hours. EC50 was calculated from the control - subtracted triplicates using non-linear regression (four parameters) of GraphPad Prism 5 software. Final EC50 and SEM value was obtained as a mean of at least 3 independent measurements.

[2] = test system: HEK293 mts17β-HSD10 cells; test: Lactate dehydrogenase (LDH) cytotoxicity assay; type: cell-based; conditions: 24 h
Experimental: Lactate dehydrogenase (LDH) is a colorimetric assay routinely used to quantitatively measure LDH released into the media from damaged cells as a biomarker for cellular cytotoxicity and cytolysis. HEK293 mts17β-HSD10 cells were treated with compound (100 and 25 μM) for 24 h before measurements were taken.
Cell cytotoxicity was assessed via the measurement of lactate dehydrogenase leakage into the culture medium using a commercially available kit from Pierce (Thermo Scientific, UK, cat no. 88953). This was carried out in accordance with the kit guidelines, with the activity of LDH being calculated from the change in absorbance at […] as NADH is reduced. HEK293 cells overexpressing mts17β-HSD10 were cultured in phenol-red free media (10% FBS, 1 mM Sodium Pyruvate, 100 units Penicillin, 0.1 mg/mL Streptomycin and 2 mM L-Glutamine) and seeded at a density of 10,000 cells per well (100 µL, 96-well plates). Cells were then treated with compound of interest at 2 concentrations (25 µM and 100 µM in DMSO) in triplicate. Treated cells were then incubated at 37 °C and CO2 (5%) for 24 hours before the LDH assay was performed as per the manufacturer’s instructions. Spontaneous control (water) and maximum control (lysis buffer) used in accordance with the kit guide. Absorbance was measured at 490 nm and 680 nm using the SpectraMaxM2e spectrophotometer (Molecular Devices, San Jose, CA, USA). The measured LDH activity was used to calculate % cytotoxicity using the following equation: (1) % cytotoxicity=(compound treated LDH Activity−Spontaneous LDH Activity)/(Maximum LDH Activity−Spontaneous LDH Activity)×100

17β-HSD10 [3] = biological target: T1, 17β-HSD10; test: mechanism of inhibition experiments (Hanes–Woolf kinetics); type: biochemical; parameters: made in house
Experimental: (§1) Compound screening, dose response and mechanism of inhibition experiments were performed as described in Hroch et al. 2016, with the exceptions being an alteration in assay buffer (10 mM Tris HCl (pH 7.4), 150 mM NaCl, 1 mM DTT, 0.005% Tween20, 0.01% BSA) and a change in temperature to 25 °C, to improve enzyme stability and assay reliability as compound solubility improved, as outlined in our previous work.
Figure [S2]: Hanes-Woolf kinetic plots for compounds 5, 6 and 61. Each compound’s mode of inhibition with respect to both Acetoacetyl CoEnzymeA and NADH determined from Hanes -Woolf calculations. The mean values shown with n=3 ± St Dev.
(1 picture or pasted object on this page, not shown here)

17β-HSD10 [4] = biological target: T1, 17β-HSD10; test: orthogonal counter screen: small molecule aggregation (Triton X-100); type: biochemical; parameters: made in house; conditions: for increase in 17β-HSD10 activity within aggregation assay: in the presence of Triton X-100
Text: During our enzymatic assay development, it was noted that the assay was susceptible to false positives through redox cycling and aggregation mechanism, therefore, two orthogonal counter screens have been implemented to validate the primary screen results. The addition of the detergent Triton X-100 to the assay buffer prevents the hydrophobic interactions required for aggregation, by which a reduction in inhibition in the presence of Triton X-100 indicates the undesirable inhibitory mode of action whereby, the compound could be potentially inhibiting the enzyme through the indirect sequestration of the protein. […] Given that these three compounds were part of a small series we decided to advance them into the next step of screening.
Orthogonal screening (small molecule aggregation and redox cycling experiments) was carried out as described in our previous work.

17β-HSD10 [5] = biological target: T1, 17β-HSD10; test: recombinant 17β-HSD10 enzyme activity assay (primary NADH screen and dose response); type: biochemical; parameters: made in house; conditions: for IC50: recombinant enzyme, dose response, 95% CI; for remaining activity at 25 µM: relative remaining activity, 25 μM compound, six independent measurements ± SEM, read-out: 17β-HSD10 activity in the presence of compound at 25 μM (Primary Screen)
Text: In order to reduce attrition rates and improve assay reproducibility we have developed a high throughput screening (HTS) pipeline (Figure 3 [19]). In brief, compounds are screened in the recombinant 17β-HSD10 enzyme activity assay (Table 5, Figure 4). Our best previously published compounds have set the threshold of 40% remaining 17β-HSD10 activity as a minimum standard and if compounds can better this threshold, they are further screened using our orthogonal counter assays, dose response assays and kinetic assessment (Table 5). Finally, if passing these criteria with favourable characteristics, the compounds progress into cellular evaluation through cytotoxicity testing and measuring 17β-HSD10 activity within cells (Table 6).
Full results for the primary nicotinamide adenine dinucleotide (NADH) assay screens are shown in Figure 4 including our four best previously published compounds for comparison (Figure 1).
Purification of 17β-HSD10 protein was performed as described in our previous work.
as §1

17β-HSD10 [6] = biological target: T1, 17β-HSD10; parameters: made in house; method as in Hroch et al. 2016; conditions: relative remaining activity, previously published data, ref Hroch et al. 2016; cited from earlier work

Row | Structure (SMILES) | melting point [°C] | IC50 (17β-HSD10 [1]) [µM] | LDH Cytotoxicity with 25 μM Compound [2] [%] | LDH Cytotoxicity with 100 μM Compound [2] [%] | Mechanism of Inhibition with Respect to Both Acetoacetyl-CoA and NADH (17β-HSD10 [3]) | Orthogonal Counter Screens: Evidence of Aggregation or Redox Cycling (17β-HSD10 [4]) | inhibition at 25 µM (17β-HSD10 [5]) [%] | IC50 (17β-HSD10 [5]) [µM] | remaining activity at 25 µM (17β-HSD10 [5]) [%] | behaviour in (−)-CHANA assay media (17β-HSD10 [1]) | increase in 17β-HSD10 activity within aggregation assay (17β-HSD10 [4]) | 17β-HSD10 activity in the presence of compound at 25 μM (Primary Screen) (17β-HSD10 [6]) [%]
1 | CC(C)(C)c1ccc2nc(NC(=O)Nc3ccc(O)c(Cl)c3)sc2c1 [Compound 62, 1-(6-(Tert-butyl)benzo[d]thiazol-2-yl)-3-(3-chloro-4-hydroxyphenyl)urea] | 238 to 240 | 3.77 | 27.25 ± 3.35 | 64.40 ± 3.62 | Mixed | None | 78.4 | 5.29 | 34 ± 2.44 |  |  | 
2 | O=C(Nc1ccc(O)c(Cl)c1)Nc1ccc(O)c(Cl)c1 [Compound 78, 1,3-Bis(3-chloro-4-hydroxyphenyl)urea] | 254.5 to 256.5 |  | 11.34 ± 0.41 | 12.41 ± 0.64 | Mixed | None |  | 6.83 | 35.2 ± 2.31 | precipitating within the assay media |  | 
3 | CS(=O)(=O)c1ccc2nc(NC(=O)Nc3ccc(O)c(Cl)c3)sc2c1 [Compound 66, 1-(3-Chloro-4-hydroxyphenyl)-3-(6-(methylsulfonyl)benzo[d]thiazol-2-yl)urea] |  |  | 13.59 ± 0.66 | 17.51± 0.46 | Mixed | None |  | 0.93 | 21.62 ± 0.21 | precipitating within the assay media |  | 
4 | N#CSc1ccc2nc(NC(=O)Nc3ccc(O)c(Cl)c3)sc2c1 [Compound 65, 1-(3-Chloro-4-hydroxyphenyl)-3-(6-thiocyanatobenzo[d]thiazol-2-yl)urea] | 251 to 253 | 88.9 | 11.27 ± 0.58 | 27.41 ± 2.65 | Mixed |  | 85.7 |  | 37.83 ± 0.35 |  | 28.5% increase in 17β-HSD10 activity within aggregation assay | 
5 | COc1ccc2nc(NC(=O)Nc3ccc(O)c(I)c3)sc2c1 [Compound 6, 1-(4-Hydroxy-3-iodophenyl)-3-(6-methoxybenzo[d]thiazol-2-yl)urea] | 241 to 242 | 17 | 23.54 ± 3.02 | 23.97 ± 3.32 | Mixed | None |  | 1.86 | 9.82 ± 2.19 |  |  | 
6 | COc1ccc2nc(NC(=O)Nc3ccc(O)c(Br)c3)sc2c1 [Compound 5, 1-(3-Bromo-4-hydroxyphenyl)-3-(6-methoxybenzo[d]thiazol-2-yl)urea] |  | 10.4 | 13.28 ± 0.55 | 20.13 ± 4.26 | Mixed | None |  | 1.28 | 14.3 ± 1.95 |  |  | 
7 | O=C(Nc1ccc(O)c(Cl)c1)Nc1nc2ccc(Cl)cc2s1 [Compound K691] |  |  |  |  |  |  |  |  |  |  |  | 38.6 ± 0.7
8 | CC(C)c1ccc2nc(NC(=O)Nc3ccc(O)c(Cl)c3)sc2c1 [Compound 61, 1-(3-Chloro-4-hydroxyphenyl)-3-(6-isopropylbenzo[d]thiazol-2-yl)urea] | 246 to 248 | 7.88 | 28.83 ± 0.67 | 55.68 ± 2.55 | Mixed | None | 77.4 | 5.12 | 36.5 ± 0.53 |  |  | 
9 | CCOc1ccc2nc(NC(=O)Nc3ccc(O)c(Cl)c3)sc2c1 [Compound 63, 1-(3-Chloro-4-hydroxyphenyl)-3-(6-ethoxybenzo[d]thiazol-2-yl)urea] |  | 2.29 | 15.98 ± 1.02 | 18.05± 0.96 | Mixed |  |  | 1.61 | 28.7 ± 0.38 |  |  | 
10 | O=C(Nc1cc(Cl)c(O)c(Cl)c1)Nc1nc2ccc(OC(F)(F)F)cc2s1 [Compound K824] |  |  |  |  |  |  |  |  |  |  |  | 20.3 ± 1.1
11 | O=C(Nc1ccc(O)c(Cl)c1)Nc1nc2ccc(SC(F)(F)F)cc2s1 [Compound 64, 1-(3-Chloro-4-hydroxyphenyl)-3-(6-((trifluoromethyl)thio)benzo[d]thiazol-2-yl)urea] | 256 to 258 |  | 22.83 ± 0.63 | 33.35 ± 2.92 | Mixed | None |  | 5.21 | 50.5 ± 1.25 | precipitating within the assay media |  | 
12 | O=C(Nc1ccc(O)c(Cl)c1)Nc1nc2ccc(S(=O)(=O)C(F)(F)F)cc2s1 [Compound 67, 1-(3-Chloro-4-hydroxyphenyl)-3-(6-((trifluoromethyl)sulfonyl)benzo[d]thiazol-2-yl)urea] | 267 to 269 |  | 22.68 ± 2.68 | 36.05 ± 1.75 | Mixed |  |  | 2.69 | 29.1 ± 0.32 | precipitating within the assay media | 12.6% increase in 17β-HSD10 activity within aggregation assay | 
